The values that follow come from patent US20060020021A1, “Use of compounds derived from 2,3-dehydronaringenin for the treatment of inflammatory processes and pharmaceutical composition containing said derivatives” (FURFURAL ESPANOL, S.A., priority 2004, published 2006).

Test [1] concerns paw edema in mice induced by carragenin. The test can be described thus: Test of paw edema in mice induced by carragenin (paw volume). Format: in vivo, male Swiss albino mice. Particulars: 70 mg/kg intraperitoneally 1 h before intradermal carragenin; significant at 1 h (p<0.025), 5 h (p<0.005), 24 h (p<0.0005). The method, then:
The anti-inflammatory capacity of the product of Formula (I), wherein R is a potassium cation, was tested: [drawing 3] in male Swiss albino mice of 8 to 10 weeks of age (38-44 g), from the Servicio de Animales de Laboratorio (Laboratory Animals Department) of the University of Murcia. The animals were maintained under standard conditions (temperature of 22±2° C., humidity 60±4% and light/dark cycle of 12 hours) with food and drink ad libitum. The animals were anesthetized with ether in the moment of inducing inflammation and during the measurements of the volume of the paw. Test of Paw Edema in Mice Induced by Carragenin
The inflammation was caused by intradermal injection of 0.05 ml of 1% Lambda Carrageenan (Sigma-Aldrich, Madrid, Spain) in saline solution in the plantar pad of the right hind paw. The measurement of the edema was carried out with a digital calibrator (Proinsa, Vitoria, Spain), measuring the 3 largest diameters of the paw for the volume calculation. The measurements were carried out in triplicate. The volume of the paw was measured immediately before (0 hours) and at 1, 5 and 24 hours after causing inflammation. The compound of Formula (I) was dissolved in sterile saline solution and intraperitoneally administered (70 mg/kg) 1 h before causing inflammation. […] Groups of 10 animals were used. […]

The test system is the same in test [2]. In words: Microscopic study and assessment of the injected plantar pad (edema, inflammatory infiltrate, degree 0-3). To be noted: treated group, 24 hours post-inoculation, 70 mg/kg i.p. Format: in vivo, male Swiss albino mice. The method, then:
The plantar pad area injected was extirpated at 24 hours post-inoculation; fixed in 10% buffered neutral formaldehyde, included in paraffin by the standard method, sectioned at 3 μm and stained with hematoxilin-eosin for its optical study which was carried out by two observers. The presence of edema and polynuclear neutrophils and monocytes was measured, being assessed as 0 (absence), 1 (slight), 2 (moderate) and 3 (intense) (FIGS. 3 to 6b).

SMILES strings stand for the structures.

Regarding `O=c1cc(-c2ccc(O)cc2)oc2cc(O)cc(O)c12` [2,3-DHNA, 2,3-dehydronaringenin], the “Increases in the volume of inoculated paw, treated group vs control group” value in test [1] is “lower in the treated group than in the control group”. Moreover, in test [2], the “samples with moderate inflammation (degree 2)” value was found to be 13.3%, the “samples with neither edema nor inflammatory infiltrate (degree 0)” value was found to be 60% and the “samples with slight inflammation (degree 1)” value came to 26.65%.
